Records with an inconclusive call do not appear. The source made the active and inactive calls. No rule for the calls is given here.

The subject of the series is S. typhimurium/E. coli reverse mutation, colony counts. The experiment in a line: Bacterial reverse mutation test (aka Ames test) summary data.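 Also: His-minus Salmonella and trp-minus E. coli WP2 uvrA pKM101 with or without liver S9.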 The source says: The Ames test uses bacteria cultures to determine whether a substance causes mutations. Because there is a significant overlap between substances that are mutagens and those that are carcinogens, a quick and inexpensive mutagenicity test is useful as an initial screening for possible carcinogens.
The Ames test relies on specific strains of S. typhimurium, namely: TA97, TA98, TA100, TA102, TA104, TA1535, TA1537, and TA1538. In addition to the S. typhimurium strains, the test may also use the E. coli strain WP2 uvrA pKM101.
Each of the bacterial strains has a mutation that prevents it from making an amino acid (a protein building block) required for normal cell growth. The S. typhimurium strains are unable to manufacture histidine; the E. coli strain cannot manufacture tryptophan. The tester strains will not be able to grow without amino acid supplementation, unless the mutated gene is changed back to the correct DNA sequence (reversion mutation). Being exposed to a mutagenic chemical increases the chance that the mutant gene will be restored to the correct sequence, which allows the bacteria to grow and form colonies. Each substance under study is tested in a variety of bacterial strains with different types of altered DNA sequences in order to provide a comprehensive assessment of the mutagenic potential of the substance.
Some non-mutagenic substances are converted to mutagenic substances when metabolized by the liver; in contrast, some substances that are mutagenic in their natural state are converted to non-mutagens by the liver. All substances are tested in their natural state, as well as in the presence of liver enzymes that can produce this metabolic conversion of the test substance. Extracts of rat, hamster, or mouse liver enzymes (S9 mix) are used for this purpose.
D. Preparing the Cultures
Multiple sets of cultures are prepared using a range of doses and different amounts of liver enzymes for each bacterial strain. Each culture is prepared in a test tube containing a suspension of one bacterial strain and either an S9 mix or plain buffer solution. Then the test substance is added. Negative control cultures are established using the same ingredients, but without the test substance. Positive control cultures are established using known mutagens active in particular bacterial strains and metabolic conditions (for example, with or without S9). Once prepared, each culture is incubated for 20 minutes at 37° C. Agar is then added to the cultures, and the contents of each tube are poured onto the surface of a Petri dish that was prepared with standard bacterial culture medium. The plates are then incubated, usually for two days.
Depending on the substance to be tested, the exposure and incubation processes may be modified. These variations include:
- Elimination of the 20-minute incubation period in a test tube prior to plating (this method is referred to as the standard plate incorporation method)
- Enzymatic reduction of azo and diazo substances (this process occurs in the intestine or liver of animals) using a chemical called flavin mononucleotide (FMN) or intestinal bacterial preparations from rats
- Testing in sealed chambers such as desiccators for volatile and gaseous chemicals.
To validate the test, a trained investigator compares the number of colonies on the chemical-treated plates to the number of colonies on the negative control plates. If the substance under test is mutagenic, the chemical-treated plates will have a much greater number of colonies than the negative control plates.
- A positive response is a reproducible, dose-related increase in mutant colonies in any single strain, with or without the addition of S9 metabolic enzymes. While there is no minimum percentage of increase required for a result to be considered positive, a twofold increase in mutant colonies in a treated plate is usually considered to be a positive (mutagenic) response.
[…]
A general note: In the Ames test, an excess of revertant colonies over the control signals mutagenicity.
In the case of `CC(C)NC(C)C`, the outcome was “inactive; negative”.
The result for `OCCN1CN(CCO)CN(CCO)C1` reads “active; positive”; that for `COCCO`, “inactive; negative”.
In the case of `OCCBr` it was “active; positive”; in that of `CN1CCC(CN2c3ccccc3Sc3ccccc32)C1` (stereo unspecified), “inactive; negative”; in that of `CC1CC(=O)O1` (stereo unspecified), “active; positive”.
In the case of `CC1OC(C)OC(C)O1` (stereo unspecified) it was “active; positive”; in that of `Nc1cc([N+](=O)[O-])ccc1O`, “active; positive”; in that of `Cc1ccc(CO)cc1`, “inactive; negative”.
As to `Cc1ccc(C(C)(C)O)cc1`, the outcome was “inactive; negative”.
In the case of `Nc1nc(N)c2nc(-c3ccccc3)c(N)nc2n1` it was “inactive; negative”.
Take `C=CC(=O)NC(C)(C)CC(C)=O`: the outcome was “inactive; negative”.
Turning to `CC(=O)Nc1cccc(O)c1`, the outcome was “inactive; negative”.
In the case of `C=CCN(CC=C)CC=C` it was “inactive; negative”; in that of `C=CC(=O)OCC(CO)(COC(=O)C=C)COC(=O)C=C`, “inactive; negative”.
In the case of `N#C/C(N)=C(/N)C#N` it was “inactive; negative”; in that of `Nc1ccc([N+](=O)[O-])cc1O`, “active; positive”; in that of `Nc1cc(Cl)ccc1Cl`, “inactive; negative”.
The result for `Nc1cccc2c(N)cccc12` reads “active; positive”; that for `Nc1c2c(nc3ccccc13)CCCC2`, “active; positive”; that for `O=S(=O)(O)c1cc(N=Nc2c(O)ccc3ccccc23)ccc1-c1ccc(N=Nc2c(O)ccc3ccccc23)cc1S(=O)(=O)O`, “inactive; negative”.
Turning to `Cc1c(N)cccc1[N+](=O)[O-]`, the outcome was “active; positive”.
The result for `Nc1ncn([C@@H]2O[C@H](CO)[C@@H](O)[C@H]2O)c(=O)n1` reads “active; positive”.
In the case of `Nc1ccc(N)c2ccccc12` it was “active; positive”; in that of `Cc1ccccc1C(N)=O`, “inactive; negative”; in that of `CC(C)(O)C#N`, “inactive; negative”.
Consider `CCOC(N)=O`, for which the outcome was “active; positive”.
The result for `CCN(CC)c1ccc([N+](=O)[O-])cc1` reads “active; positive”; that for `CC=C(Cl)Cl`, “inactive; negative”.
Regarding `C=C(C)C(=O)OC(C)C`, the outcome was “inactive; negative”.
In the case of `CC(=O)Nc1ccc(N=Nc2cc(C)ccc2O)cc1` it was “active; positive”.
The result for `O=C(O)C(F)(F)C(F)(F)C(F)(F)C(F)(F)C(F)(F)C(F)(F)C(F)(F)C(F)(F)C(F)(F)C(F)(F)C(F)(F)F` reads “inactive; negative”; that for `CN(C)[C@@H]1C(=O)C(C(N)=O)=C(O)[C@@]2(O)C(=O)C3=C(O)c4c(O)cccc4[C@@](C)(O)[C@H]3[C@H](O)[C@@H]12`, “inactive; negative”.
In the case of `C=CBr` it was “active; positive”.
On to `Cc1ccc2ncccc2c1`, for which the outcome was “active; positive”.
The result for `CC[C@H]1CN2CCc3cc(OC)c(OC)cc3[C@@H]2C[C@@H]1C[C@H]1NCCc2cc(OC)c(OC)cc21` reads “inactive; negative”; that for `CCCCCCCC/C=C\CCCCCCCC(=O)OC`, “inactive; negative”; that for `CCN(CC)C(=S)S[Te](SC(=S)N(CC)CC)(SC(=S)N(CC)CC)SC(=S)N(CC)CC`, “inactive; negative”.
Turning to `CC/C(=C(/CC)c1ccc(O)cc1)c1ccc(O)cc1`, the outcome was “inactive; negative”.
The result for `CC=C(C)C#N` reads “inactive; negative”; that for `Nc1nc2ncc(CNc3ccc(C(=O)N[C@@H](CCC(=O)O)C(=O)O)cc3)nc2c(=O)[nH]1`, “inactive; negative”.
In the case of `C(CCOCC1CO1)COCC1CO1` (stereo unspecified), the outcome is “active; positive”.
The result for `C=CCC1(C(C)C#CCC)C(=O)N=C(O)N(C)C1=O` (stereo unspecified) reads “inactive; negative”; that for `C1COC1`, “active; positive”.
For the compound `Clc1c(Cl)c(Cl)c2ccccc2c1Cl`, the outcome was “inactive; negative”.
With `C=C(C)C`, the outcome is “inactive; negative”.
In the case of `S=c1[nH][nH]c(=S)s1` it was “inactive; negative”.
The result for `CCN(Cc1cccc(S(=O)(=O)[O-])c1)c1ccc(C(=C2C=CC(=[N+](C)C)C=C2)c2ccc(N(CC)Cc3cccc(S(=O)(=O)O)c3)cc2)cc1` reads “active; positive”; that for `CCOP(=O)(NC(C)C)Oc1ccc(SC)c(C)c1` (stereo unspecified), “inactive; negative”; that for `OCC(Br)CBr` (stereo unspecified), “active; positive”.
Take `CC(C)OC(=O)Cc1ccccc1`: the outcome is “inactive; negative”.
For the compound `COc1ccc(N)cc1`, the outcome is “active; positive”.
In the case of `CNCCO` it was “inactive; negative”.
The result for `OC[C@H]1O[C@@H](Oc2ccc(O)cc2)[C@H](O)[C@@H](O)[C@@H]1O` reads “inactive; negative”.
The result for `C1CN(CCOCCN2CCOCC2)CCO1` reads “inactive; negative”.
As to `CC(=O)NS(=O)(=O)c1ccc(N)cc1`, the outcome is “inactive; negative”.
The result for `Cc1c(Br)c(Br)c(Br)c(Br)c1Br` reads “inactive; negative”; that for `CCN(CC)c1ccc2c(C)cc(=O)oc2c1`, “inactive; negative”; that for `CC(Cl)CCl` (stereo unspecified), “active; weakly positive”.
In the case of `OC1CCCCC1` it was “inactive; negative”; in that of `c1ccccc1`, “inactive; negative”; in that of `CCCCCCCCC1CO1` (stereo unspecified), “inactive; negative”.
For `CN(C)N=O`, the outcome was “active; positive”.
For `Nc1ccc(Nc2ccccc2)cc1`, the outcome was “inactive; negative”.
The result for `Cc1ccc(Cl)cc1N` reads “inactive; negative”; that for `C=CC(=O)NCNC(=O)C=C`, “active; positive”; that for `COP(=O)(OC)O/C(=C\Cl)c1cc(Cl)c(Cl)cc1Cl`, “inactive; negative”.
In the case of `N=C1N=C(N)c2ccccc21` it was “active; positive”; in that of `CCCNC(C)C(=O)Nc1ccccc1C` (stereo unspecified), “inactive; negative”; in that of `Cc1ccccc1N=Nc1c(O)ccc2ccccc12`, “active; positive”.
In the case of `C=CC(=O)OCC(Br)CBr` (stereo unspecified) it was “active; positive”.
In the case of `O=Nc1ccc(Nc2ccccc2)cc1`, the outcome was “active; weakly positive”.
In the case of `COC(=O)c1ccc(C=O)cc1` it was “inactive; negative”; in that of `CC(=O)C1(C)CC2=C(CCCC2(C)C)CC1C` (stereo unspecified), “inactive; negative”.
The result for `CC(=O)OC(C(=O)c1ccccc1)c1ccccc1` (stereo unspecified) reads “inactive; negative”; that for `CC1=CC(=C(c2ccc(N)cc2)c2ccc(N)cc2)C=CC1=N`, “active; positive”.
On to `c1ccc2c(c1)CCNC2`, for which the outcome was “inactive; negative”.
`CCCCCCCCOP(=O)(OCCCCCCCC)OCCCCCCCC`: the outcome was “inactive; negative”.
In the case of `NCCS(=O)(=O)O` it was “inactive; negative”; in that of `Oc1cccc2cccnc12`, “active; positive”.
The result for `CC(C)c1ccccc1` reads “inactive; negative”.

For the origin of these results see PubChem BioAssay AID2202554 (NIEHS Division of Translational Toxicology (DTT)).
